How the values were obtained:
[1] = Antitumor activity in mouse adenocarcinoma model at 100 ppm relative to control; type: functional
[2] = Antitumor activity in mouse adenocarcinoma model at 500 ppm relative to control; type: functional
RAW264.7 [3] = assay: Anti-inflammatory activity in mouse RAW264.7 cells assessed as inhibition of LPS-induced NO production; type: functional, cell-based
Mus musculus [4] = assay: (§1) Anti-parkinson's activity in intranigral LPS-induced Parkinson's disease-like C57BL/6 mouse model assessed as protection against dopaminergic neuronal loss in substantia nigra by measuring increase in TH-positive neuronal cells at 19.3 mg/kg, sc once daily for 21 days starting from day 1 post LPS treatment by immunohistochemistry relative to control; type: functional
Mus musculus [5] = assay: (§2) Anti-parkinson's activity in intranigral LPS-induced Parkinson's disease-like C57BL/6 mouse model assessed as inhibition of microglial hyperactivation by measuring IBA1 positive cells at 19.3 mg/kg, sc once daily for 21 days starting from day 1 post LPS treatment by immunohistochemistry relative to control; type: functional; details: C57BL/6, sc
Mus musculus [6] = assay: Anti-parkinson's activity in intranigral LPS-induced Parkinson's disease-like C57BL/6 mouse model assessed as astrocytes activation at 19.3 mg/kg, sc once daily for 21 days starting from day 1 post LPS treatment by confocal fluorescence microscopic method relative to control; type: functional
Mus musculus [7] = assay: Anti-parkinson's activity in intranigral LPS-induced Parkinson's disease-like C57BL/6 mouse model assessed as astrocytes activation at 25 mg/kg, sc once daily for 21 days starting from day 1 post LPS treatment by confocal fluorescence microscopic method relative to control; type: functional
Mus musculus [8] = assay: as §1, with “25” for “19.3”; type: functional
Mus musculus [9] = assay: as §2, with “25” for “19.3”; type: functional; details: C57BL/6, sc
RAW264.7 [10] = assay: Anti-inflammatory activity in mouse RAW264.7 cells assessed as inhibition of LPS-induced COX-2 gene expression relative to control; type: functional
RAW264.7 [11] = assay: Anti-inflammatory activity in mouse RAW264.7 cells assessed as inhibition of LPS-induced iNOS gene expression relative to control; type: functional
Neutrophil = assay: Anti-inflammatory activity in human neutrophils assessed as inhibition of fMLP/CB-induced superoxide anion generation; type: functional, cell-based
Mus musculus [12] = assay: Anti-inflammatory activity in mouse assessed as inhibition of carrageenan-induced paw edema at 10 mg/kg preincubated for 5 hrs followed by carrageenan challenge relative to control; type: functional
Mus musculus [13] = assay: Anti-inflammatory activity in mouse assessed as inhibition of croton oil-induced ear edema at 0.3 umol/cm2 administered topically relative to control; type: functional
Mus musculus [14] = assay: Anti-inflammatory activity in mouse assessed as inhibition of croton oil-induced ear edema at 10 umol/cm2 administered topically relative to control; type: functional

`C=C(C)CCC/C(C)=C/COc1ccc(/C=C/C(=O)N[C@@H](CCCNC(=N)N[N+](=O)[O-])C(=O)O)cc1OC` showed an Activity [1] of 84% and an Activity [2] of 94%.
Work on `COc1c(OC/C=C(\C)CCC=C(C)C)ccc2ccc(=O)oc12` [COLLININ] yielded an IC50 (RAW264.7 [3]) of 5.9 µM.
For `CC(C)=CCOc1ccc2ccc(=O)oc2c1` [7-PRENYLOXYCOUMARIN], the “fold change (FC)” value (Mus musculus [4]) was 2.2, the inhibition in vivo at 19.3 mg/kg (Mus musculus [5]) was 19.1% and the Activity (Mus musculus [6]) was 65.3%.
In the case of `CC(C)=CCC/C(C)=C/COc1ccc2ccc(=O)oc2c1` [AURAPTENE], the Activity (Mus musculus [7]) is reported as 68.4%, the “fold change (FC)” value (Mus musculus [8]) is reported as 2.2 and the inhibition in vivo at 25 mg/kg (Mus musculus [9]) is reported as 39.1%.
In the case of `CC(C)=CCOc1c2occc2cc2ccc(=O)oc12` [PENTOSALEN], the “inhibition (INH)” value (RAW264.7 [10]) is reported as 66.7%, the “inhibition (INH)” value (RAW264.7 [11]) is reported as 69.2% and the IC50 (Neutrophil) is reported as 1.7 µM. It also gave an inhibition in vivo at 10 mg/kg (Mus musculus [12]) of 54.4%.
With `CC(C)=CCOC1=CC(=O)c2ccccc2C1=O` the “inhibition (INH)” value (Mus musculus [13]) was 14%.
For `CC(C)=CCOc1ccc(CCO)cc1` [ETROGOL], the “inhibition (INH)” value (Mus musculus [13]) was 32% and the “inhibition (INH)” value (Mus musculus [14]) was 78%.
For `COc1cc(CO)cc(OC)c1OCC=C(C)C`, the “inhibition (INH)” value (Mus musculus [13]) was 31% and the “inhibition (INH)” value (Mus musculus [14]) was 77%.
In the case of `CC(C)=CCOc1ccc(CCCO)cc1`, the “inhibition (INH)” value (Mus musculus [13]) is reported as 28% and the “inhibition (INH)” value (Mus musculus [14]) is reported as 68%.

From ChEMBL document CHEMBL4152182, “Recent acquisitions on oxyprenylated secondary metabolites as anti-inflammatory agents” (Eur J Med Chem, 2018)
